The text below walks through data of ChEMBL document CHEMBL4602715, “Efficacy and Tolerability of Pyrazolo[1,5-a]pyrimidine RET Kinase Inhibitors for the Treatment of Lung Adenocarcinoma” (ACS Med Chem Lett, 2020).

The structures appear in SMILES notation.

Data set [1] in a line: Oral bioavailability in BALB/c mouse at 20 mg/kg measured upto 24 hrs by LC-MS/MS analysis. In kind it is ADME, organism-based. The conditions noted are these: in vivo.
Data set [2] is described as follows: AUC in BALB/c mouse at 20 mg/kg, po measured upto 24 hrs by LC-MS/MS analysis. Also noted: dose 20 mg/kg, time < 24 hr, route oral. The class given is ADME, organism-based. The conditions noted are these: in vivo.
Data set [3] in a line: Cmax in BALB/c mouse at 20 mg/kg, po measured upto 24 hrs by LC-MS/MS analysis. In kind it is ADME, organism-based. Also noted: dose 20 mg/kg, route oral. The note with it: in vivo.
Data set [4] can be described thus: Half life in BALB/c mouse at 20 mg/kg, po measured upto 24 hrs by LC-MS/MS analysis. The note with it: in vivo. In kind it is ADME, organism-based.
Data set [5] in a line: Ratio of AUC in BALB/c mouse brain to plasma at 20 mg/kg, po measured upto 24 hrs by LC-MS/MS analysis. The class given is ADME, organism-based. The conditions noted are these: brain and plasma.
The nature of data set [6]: Ratio of Cmax in BALB/c mouse brain to plasma at 20 mg/kg, po measured upto 24 hrs by LC-MS/MS analysis. In kind it is ADME, organism-based. The note with it: brain and plasma.
The nature of data set [7]: Toxicity in Harlan Foxn1 nude mouse xenografted with rat RIE cells transfected with KIF5B/RET assessed as reduction in body weight at 30 to 60 mg/kg, po qd for 14 days. The conditions noted are these: in vivo, 336 h. In kind it is organism-based.
Data set [8] can be described thus: Toxicity in Harlan Foxn1 nude mouse xenografted with rat RIE cells transfected with KIF5B/RET assessed as reddish mottled appearance of lungs at 30 to 60 mg/kg, po qd for 14 days. The conditions noted are these: in vivo, 336 h. In kind it is organism-based.
The nature of data set [9]: Toxicity in Harlan Foxn1 nude mouse xenografted with rat RIE cells transfected with KIF5B/RET assessed as lung collapse at 30 to 60 mg/kg, po qd for 14 days. The note with it: in vivo, 336 h. The class given is organism-based.
The nature of data set [10]: Toxicity in Harlan Foxn1 nude mouse xenografted with rat RIE cells transfected with KIF5B/RET assessed as signs of hemorrhaging at 30 to 60 mg/kg, po qd for 14 days. The class given is organism-based. The note with it: in vivo, 336 h.
A short description of data set [11]: Toxicity in Harlan Foxn1 nude mouse xenografted with rat RIE cells transfected with KIF5B/RET at 10 mg/kg, po qd for 14 days. In kind it is organism-based. The conditions noted are these: in vivo, 336 h.
A short description of data set [12]: Toxicity in Harlan Foxn1 nude mouse xenografted with rat RIE cells transfected with KIF5B/RET at 1 to 10 mg/kg, po qd for 10 days. In kind it is organism-based. The note with it: in vivo, 240 h.
The nature of data set [13]: Toxicity in NSG mouse xenografted with human LC2/ad cells assessed as body weight loss at 10 mg/kg, po qd for 21 days measured following drug dosing termination on day 24. The class given is organism-based. The conditions noted are these: in vivo, 504 h. (Xenograft models place foreign cells or tissue in a host animal.)
The nature of data set [14]: Toxicity in NSG mouse xenografted with human LC2/ad cells assessed as necropsy in kidneys at 10 mg/kg, po qd for 21 days measured following drug dosing termination on day 24. In kind it is organism-based. The note with it: in vivo, 504 h.
Data set [15] is described as follows: Drug uptake in plasma of Harlan Foxn1 nude mouse xenografted with rat RIE cells transfected with KIF5B/RET at 1 to 10 mg/kg, po qd for 10 days by LC-MS/MS analysis. In kind it is ADME, organism-based. The conditions noted are these: in vivo, 240 h.

`COc1ccc(-c2cnn3c(N)c(-c4ccccc4)c(NC4CC(C)(C)N(C)C(C)(C)C4)nc23)cc1OC.Cl`: the bioavailability in [1] is 94%. Further, the AUC at 24 h in data set [2] was 12 µM·h. Besides, the Cmax in data set [3] was found to be 730 nM. In data set [4], the half-life was 11 h. In addition, the figures for the concentration ratio (Kp) at 24 h in [5] and in data set [6] were 0.94 and 0.81, respectively. The Activity result in [7] is reported as “Toxic”; in data set [8], “Toxic”; in [9] it was “Toxic”; in data set [10], “Toxic”; in data set [11] it was “Non-Toxic”; in data set [12] it was “Non-Toxic”. Moreover, the Activity entry in data set [13] and in [14] was “Toxic” in each case. Also, in data set [15], the Drug uptake result is “Active”.

What is called bioavailability is the share of a dose that reaches the circulation, judged against a reference dose that is usually intravenous. By AUC is commonly meant the area under the concentration-time curve, a measure of exposure. The low end stands for low exposure, the high end for high exposure. For orientation: Cmax means the highest concentration seen after dosing. For orientation: half-life means the time needed for the level to fall by half in the phase considered. Read a low half-life as rapid decline. Broadly, the Kp is tissue or fluid exposure divided by exposure in the circulation.
